Reference: paper PMC4388757, “In Vitro and In Vivo Metabolism and Inhibitory Activities of Vasicine, a Potent Acetylcholinesterase and Butyrylcholinesterase Inhibitor” (PLoS ONE, 2015)
Where a name gives a salt, the structure may show the parent alone. Read-outs that look alike come from different tables or passages of the source.

How the values were obtained:
[1] = biological target: T1, AChE from Electrophorus electricus (Electrophorus electricus, UniProt O42275); assay: biochemical; format: biochemical; conditions: for IC50: means ± SD of three replicate determinations; for fold reduction of AChE inhibitory activity: VAO vs VAS, VAO-3-S vs VAS-3-S, VAS-3-G vs VAS
T1 construct: purchased Sigma Aldrich Co. (St. Louis, MO, USA)
T1 sequence (O42275 24-633): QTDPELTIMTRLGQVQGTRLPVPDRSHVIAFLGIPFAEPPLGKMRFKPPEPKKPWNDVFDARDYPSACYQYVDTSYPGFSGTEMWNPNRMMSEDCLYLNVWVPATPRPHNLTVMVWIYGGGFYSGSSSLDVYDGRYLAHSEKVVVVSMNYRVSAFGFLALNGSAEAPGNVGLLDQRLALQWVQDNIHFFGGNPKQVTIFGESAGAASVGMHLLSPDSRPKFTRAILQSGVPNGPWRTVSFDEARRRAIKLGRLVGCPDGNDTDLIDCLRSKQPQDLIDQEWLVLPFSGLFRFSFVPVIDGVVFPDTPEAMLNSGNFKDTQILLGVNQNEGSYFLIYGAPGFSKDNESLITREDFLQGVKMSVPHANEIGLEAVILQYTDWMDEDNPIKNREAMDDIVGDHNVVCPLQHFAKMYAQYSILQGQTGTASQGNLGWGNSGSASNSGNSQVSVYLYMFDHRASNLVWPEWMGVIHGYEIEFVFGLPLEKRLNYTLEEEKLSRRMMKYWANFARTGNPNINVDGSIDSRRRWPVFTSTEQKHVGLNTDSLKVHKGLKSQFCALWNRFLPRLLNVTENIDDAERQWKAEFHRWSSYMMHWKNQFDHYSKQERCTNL
Text: VAS and VAO were isolated from P. harmala in our laboratory according to a previously reported method. VAS and VAO structures were elucidated by comparing their spectral data (UV, MS, ^1H-NMR, and ^13C NMR) with the references. […] AChE from Electrophorus electricus, BChE from equine serum, acetylcholine (ACh) chloride, butyrocholine (BCh) chloride, choline (Ch) chloride, chlormequat (internal standard, IS), glucose 6-phosphate, glucose-6-phosphate dehydrogenase, NADP, UDPGA, alamethicin, fetal bovine serum, dexamethasone, and insulin were purchased from Sigma Aldrich Co. (St. Louis, MO, USA). Tris base and MgCl2 were purchased from Majorbio Biotech Corp., Ltd. (Shanghai, China). MCI Gel CHP 20P was purchased from Mitsubishi Chemical Crop. (Tokyo, Japan). Silica Gel C18 (MB 100-40/75) was purchased from Fuji Silysia Chemical Ltd. (Kasugai, Japan). Acetonitrile and methanol of HPLC grade were purchased from Fisher Scientific Co. (Santa Clara, USA). HPLC grade 96% formic acid was purchased from Tedia Co. (Fairfield, USA). Water was produced with a Milli-Q Academic System (Millipore, Billerica, MA). All other reagents and solvents were either analytical or HPLC grade.
(§1) The AChE and BChE inhibitory activities of VAS and its main metabolites, namely, VAO, VASL, VAOL, VAS-3-S, VAO-3-S, and VAS-3-G, were evaluated based on our previously established method. A 50 μL incubation system composed of 10 μL of the test compound solution (all the test compound solutions were diluted to a series of concentrations with buffer solution before each experiment) and 40 μL of the enzyme solutions (with final concentrations: 0.0035 unit/mL for AChE, or 0.008 unit/mL for BChE) were mixed and pre-incubated for 15 min. Up to 50 μL of substrate solution (final concentration of 5.505 μM for ACh, or 7.152 μM for BCh) was added into the mixture, which was then incubated for 20 min at 25°C. The reaction was terminated by addition of 300 μL of ice acetonitrile solution (0°C), which was immediately dissolved with 1.899 μM IS (chlormequat). The solution was then centrifuged (15,000 × g, 10 min), and the supernatant was used for analysis by UPLC-ESI MS/MS. The inhibitive IC50 values of VAS and its key metabolites on AChE and BChE were calculated using the Prism software (GraphPad Software Inc., San Diego, CA).

[2] = biological target: T2, BChE from equine serum (Equus caballus, UniProt P81908); assay: In vitro anticholinesterase assay (UPLC-ESI MS/MS), BChE; format: biochemical; conditions: for IC50: means ± SD of three replicate determinations; for fold reduction of BChE inhibitory activity: VAO vs VAS, VAO-3-S vs VAS-3-S, VAS-3-G vs VAS
T2 construct: BChE from equine serum; purchased Sigma Aldrich Co. (St. Louis, MO, USA); host or cells: equine serum
T2 sequence (P81908 whole entry): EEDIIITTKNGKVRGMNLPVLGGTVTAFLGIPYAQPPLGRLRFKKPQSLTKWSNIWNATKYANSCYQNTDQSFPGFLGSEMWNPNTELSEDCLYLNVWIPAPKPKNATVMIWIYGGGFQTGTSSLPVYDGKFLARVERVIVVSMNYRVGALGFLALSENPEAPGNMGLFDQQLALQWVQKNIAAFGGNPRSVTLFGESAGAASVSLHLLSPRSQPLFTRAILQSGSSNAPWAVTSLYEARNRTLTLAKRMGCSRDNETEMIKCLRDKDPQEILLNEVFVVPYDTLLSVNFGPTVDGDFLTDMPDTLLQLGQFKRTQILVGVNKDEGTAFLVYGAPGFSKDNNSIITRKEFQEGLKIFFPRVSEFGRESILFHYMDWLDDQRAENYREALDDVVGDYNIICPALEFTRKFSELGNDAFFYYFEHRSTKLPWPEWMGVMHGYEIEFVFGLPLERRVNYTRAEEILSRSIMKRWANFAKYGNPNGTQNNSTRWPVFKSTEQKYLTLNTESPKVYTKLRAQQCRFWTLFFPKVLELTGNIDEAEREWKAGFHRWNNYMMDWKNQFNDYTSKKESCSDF
Description: VAS and VAO were isolated from P. harmala in our laboratory according to a previously reported method. VAS and VAO structures were elucidated by comparing their spectral data (UV, MS, ^1H-NMR, and ^13C NMR) with the references. The purities of VAS and VAO were determined to be more than 98% through normalization of the peak areas detected by HPLC-DAD, UPLC-MS/MS, ^1H-NMR, and ^13C NMR. AChE from Electrophorus electricus, BChE from equine serum, acetylcholine (ACh) chloride, butyrocholine (BCh) chloride, choline (Ch) chloride, chlormequat (internal standard, IS), glucose 6-phosphate, glucose-6-phosphate dehydrogenase, NADP, UDPGA, alamethicin, fetal bovine serum, dexamethasone, and insulin were purchased from Sigma Aldrich Co. (St. Louis, MO, USA). Tris base and MgCl2 were purchased from Majorbio Biotech Corp., Ltd. (Shanghai, China). MCI Gel CHP 20P was purchased from Mitsubishi Chemical Crop. (Tokyo, Japan). Silica Gel C18 (MB 100-40/75) was purchased from Fuji Silysia Chemical Ltd. (Kasugai, Japan). Acetonitrile and methanol of HPLC grade were purchased from Fisher Scientific Co. (Santa Clara, USA). HPLC grade 96% formic acid was purchased from Tedia Co. (Fairfield, USA). Water was produced with a Milli-Q Academic System (Millipore, Billerica, MA). All other reagents and solvents were either analytical or HPLC grade.
as §1

[3] = Bioavailability studies of VAS (unpublished data of the laboratory); conditions: in vivo, no published data; for half-life: read-out: elimination half-life (converted)
Text: (§2) It illustrated that VAS is safe as a potential candidate drug.

[4] = LD50 determination of VAS (unpublished data); conditions: in vivo; no published data
Text: as §2

[5] = system: rats; assay: Observation of side effects during 21-day oral dosing for urine collection; format: in vivo, rat; conditions: 15 rats, oral 100 mg/kg once a day for 21 consecutive days
Description: The urine samples used for isolating and purifying the metabolites were collected from 15 rats that were given VAS orally once a day, over 21 consecutive days, at dose of 100 mg/kg body weight. In total, approximately 5 L of urine was collected and centrifuged at 4000 × g for 15 min. The supernatant was then stored at −20°C until use. At the end of experiment, all rats were sacrificed by CO2 asphyxiation.
as §2

[6] = biological target: T1, AChE from Electrophorus electricus; set-up: method as in PMID 23270245, doi:10.1155/2013/71723, PMID 24631841; conditions: previous studies; ref [3], [6]–[8]; read-out: IC50 against AChE; cited from earlier work
[7] = biological target: T2, BChE from equine serum; set-up: method as in PMID 23270245, doi:10.1155/2013/71723, PMID 24631841; conditions: previous studies; ref [3], [6]–[8]; read-out: IC50 against BChE; cited from earlier work
[8] = Metabolite detection in rat bio-specimens (urine, feces, bile, plasma) by UPLC/ESI-QTOF-MS after oral VAS; format: in vivo
Text: Bio-specimens (urine, feces, bile and plasma) collected form 18 male rats were used to study the VAS metabolism in vivo. […] Baseline urine and fecal samples were collected before oral administration of VAS. After intraperitoneal injection of urethane (1.4 g/kg), abdominal incision was made for bile sampling and the common bile duct was cannulated with a Closed IV Catheter System (ID = 0.07 cm, Becton Dickinson, USA) to collect bile samples. […] Baseline rat bile was collected before oral administration of VAS. All the samples were stored at −20°C until analysis. Blood was collected from the angular vein of the last six male rats at 0.25, 0.5, 1, and 2 h after oral administration of VAS 50 mg/kg VAS. Plasma was obtained by centrifuging blood at 4000 × g for 10 min, and then stored at −20°C until use.
Up to 1 mL of urine was thoroughly mixed with same volume of acetonitrile, and then centrifuged at 15,000 × g for 10 min. The supernatant was evaporated until dry under nitrogen at 37°C. The residue of the supernatant was re-dissolved in 200 μL of 5% methanol, and then centrifuged at 15,000 × g for 10 min. The supernatant was injected into the chromatographic systems for separation and identification of metabolites.
The supernatant was then evaporated to dryness by a gentle stream of nitrogen at 37°C. The residue was dissolved by 200 μL of 5% methanol and centrifuged at 15,000 × g for 10 min prior to injection.
Plasma or bile (400 μL) was mixed and vortexed with 1200 μL of acetonitrile for […], then centrifuged at 15,000 × g for 10 min at 4°C. Afterward, the supernatant was evaporated until dry by a gentle stream of nitrogen at 37°C. The residue was dissolved by 80 μL of 5% methanol and centrifuged at 15,000 × g for 10 min. The supernatants (5 μL) were used in the UPLC/ESI-QTOF-MS analysis.
Chromatographic analysis was performed on an HSS T3 column (100 mm × 2.1 mm, 1.8 μm particle size; Waters Corporation, Milford, MA, USA) for separation of samples using an ACQUITY UPLC system equipped with a binary solvent manager system and an autosampler. […] The flow rate was 0.4 mL/min. The column and sample-tray temperatures were maintained at 40°C and 10°C, respectively.
A Waters ACQUITY Synapt G2 Q/TOF tandem mass spectrometer was combined with the UPLC system through an electrospray ionization (ESI) interface and controlled by Masslynx software (version 4.1, Waters Corp., Manchester, UK). The positive ionization mode of ESI source was operated. The optimized conditions for maximum detection of metabolites were as follows: source temperature, 120°C; desolvation temperature, 400°C; capillary voltage, 3.0 kV; sample cone, 30 V and extraction cone, 4.0 V. The cone and desolvation gas (N2) flows were set at 75 and 800 (L/h), respectively. […] Data were collected in centroid mode and the MS^E approach using a dynamic ramp of collision energy was carried out in two scan functions. Function 1 (low energy): mass scan ranged from 100–1000,with 0.2 s scan time and 0.05 s inter-scan delay; Function 2 (high energy): mass scan ranged from 100–1000 with 0.2 s scan time, 0.05 s inter-scan delay, and collision energy ramp of 10–40 V. MS/MS analysis were operated for major metabolites to obtain additional information from product ions since the same collision energy of MS^E in Function 2 could not match each precursor ion.

[9] = set-up: method as in ref [36] = [36]; 36 Swamy G , Ravikumar K . Crystal and molecular structures of quinazolines: A ring conformational study . J Chem Crystallogr . 2005; 35 : 183 – 189 .; conditions: in vitro and in vivo; ref [36]; cited from earlier work
[10] = set-up: method as in ref [37] = [37]; 37 Bhide M , Naik P , Ghooi R . Comparative studies on the pharmacological evaluation of vasicine and vasicinone . Bull Haffkin Inst . 1976; 4 : 45 – 50 .; conditions: comparable to sodium cromoglycate; ref [37]; cited from earlier work
[11] = Stability of glucuronide metabolites in collected urine; format: physicochemical; conditions: room temperature for an excessively long time, pH > 10

SMILES | SI (AChE selectivity index, IC50 BChE/IC50 AChE) [1] | IC50 [1] [µM] | IC50 [2] [µM] | fold reduction of BChE inhibitory activity [2] [fold] | abundance in plasma [8] | further results
O[C@H]1CCN2Cc3ccccc3N=C12 [Metabolite M0, Vasicine] | 0.030 | 3.38 ± 0.03 | 0.101 ± 0.003 | – | – | half-life ([3]; after intravenous administration): ~5 h; bioavailability ([3]; after oral administration, read-out: absolute bioavailability): ~50%; half-life ([3]; after oral administration): ~1.5 h; LD50 [4]: 308 mg/kg; observable side effects [5]: no any observable side effects; IC50 [6]: 3.24 ± 0.08 µM; IC50 [7]: 0.1 µM
O=c1c2ccccc2nc2n1CCC2O (stereo not shown) [Metabolite M1, vasicinone] | 0.133 | 76.6 ± 8.46 | 10.2 ± 2.08 | 101.0 | high abundance | fold reduction of AChE inhibitory activity [1]: 22.7 fold; bronchodilatory effects compared with VAS [9]: more bronchodilatory effects than parent VAS; anti-asthmatic activity compared with VAS [10]: more potent anti-asthmatic activity than VAS
Oc1ccc2c(c1)CN1CCC(O)C1=N2 (stereo not shown) [Metabolite M3-2, vasicinol] | 0.930 | 2.65 ± 0.432 | 2.46 ± 0.224 | – | – | –
OC1CCN2C1=Nc1ccccc1C2O (stereo not shown) [Metabolite M3-3, 1,2,3,9-tetrahydropyrrolo [2,1-b] quinazolin-3,9-diol] | – | – | – | – | high abundance | –
O=c1c2cc(O)ccc2nc2n1CCC2O (stereo not shown) [Metabolite M5-2, vasicinolone] | 1.545 | 46.9 ± 2.84 | 72.4 ± 8.63 | – | – | –
O=S(=O)(O)OC1CCN2Cc3ccccc3N=C12 (stereo not shown) [Metabolite M15, 1,2,3,9-tetrahydropyrrolo [2,1-b] quinazolin-3-yl hydrogen sulfate] | 0.198 | 49.6 ± 2.77 | 9.82 ± 0.925 | – | high abundance | –
O=c1c2ccccc2nc2n1CCC2OS(=O)(=O)O (stereo not shown) [Metabolite M16, 9-oxo-1,2,3,9-tetrahydropyrrolo [2,1-b] quinazolin-3-yl hydrogen sulfate] | 0.069 | 395 ± 19.5 | 27.3 ± 5.03 | 2.8 | high abundance | fold reduction of AChE inhibitory activity [1]: 8.0 fold
O=C(O)C1OC(OC2CCN3Cc4ccccc4N=C23)C(O)C(O)C1O [Metabolite M20-2, 1,2,3,9-tetrahydropyrrolo [2,1-b] quinazolin-3-β-D-glucuronide] | 4.998 | 20.8 ± 0.329 | 104 ± 15.5 | 1027.7 | high abundance | stability in urine sample [11]: hydrolyzed
O=C(O)[C@H]1O[C@@H](O[C@H]2CCn3c2nc2ccccc2c3=O)[C@H](O)[C@@H](O)[C@@H]1O [Metabolite M21-2, vasicinone-3-O-glucuronide] | – | – | – | – | high abundance | stability in urine sample [11]: hydrolyzed
